Assay results published in ChEMBL document CHEMBL1147792, “Functional organisation and gain of activity: the case of the antibacterial tetra-para-guanidinoethyl-calix[4]arene” (Bioorg Med Chem Lett, 2006).
Values joined by “and” are separate entries in the source; they are usually repeats but may differ in a detail not shown here. Identical values can stand only once. Active and inactive are the calls of the source. The calls are words filed in the database; no cut-off is given here.

Legend:
Enterococcus faecalis [1] = test: Antibacterial activity against Enterococcus faecalis ATCC 29212 at 135 ug by disk diffusion method; format: functional
Escherichia coli [2] = test: Antibacterial activity against Escherichia coli ATCC 25922 at 67 ug by disk diffusion method; format: functional
Staphylococcus aureus [3] = test: Antibacterial activity against Staphylococcus aureus ATCC 25923 at 135 ug by disk diffusion method; format: functional
Staphylococcus aureus [4] = test: Antibacterial activity against Staphylococcus aureus ATCC 25923 at 34 ug by disk diffusion method; format: functional
MRC5 [5] = test: Ratio of IC50 for viability of MRC5 cells after 48 to MIC for Staphylococcus aureus ATCC 25923; format: functional
Pseudomonas aeruginosa [6] = test: Antibacterial activity against Pseudomonas aeruginosa ATCC 27853 at 270 ug by disk diffusion method; format: functional
Enterococcus faecalis [7] = test: Antibacterial activity against Enterococcus faecalis ATCC 29212 at 270 ug by disk diffusion method; format: functional
Escherichia coli [8] = test: Antibacterial activity against Escherichia coli ATCC 25922; format: functional
Staphylococcus aureus [9] = test: Antibacterial activity against Staphylococcus aureus ATCC 25923 at 270 ug by disk diffusion method; format: functional
Staphylococcus aureus [10] = test: Antibacterial activity against Staphylococcus aureus ATCC 25923; format: functional
MRC5 [11] = test: Viability of human MRC5 cells after 48 hrs; format: functional, cell-based; conditions: MRC5, 48 h
Pseudomonas aeruginosa [12] = test: Antibacterial activity against Pseudomonas aeruginosa ATCC 27853 at 67 ug by disk diffusion method; format: functional, organism-based
Escherichia coli [13] = test: Antibacterial activity against Escherichia coli ATCC 25922 at 34 ug by disk diffusion method; format: functional, organism-based
MRC5 [14] = test: Ratio of IC50 for viability of MRC5 cells after 48 to MIC for Enterococcus faecalis ATCC 29212; format: functional
Pseudomonas aeruginosa [15] = test: Antibacterial activity against Pseudomonas aeruginosa ATCC 27853 at 135 ug by disk diffusion method; format: functional, organism-based
Escherichia coli [16] = test: Antibacterial activity against Escherichia coli ATCC 25922 against at 135 ug by disk diffusion method; format: functional
Pseudomonas aeruginosa [17] = test: Antibacterial activity against Pseudomonas aeruginosa ATCC 27853; format: functional
MRC5 [18] = test: Ratio of IC50 for viability of MRC5 cells after 48 to MIC for Pseudomonas aeruginosa ATCC 27853; format: functional
Staphylococcus aureus [19] = test: Antibacterial activity against Staphylococcus aureus ATCC 25923 at 67 ug by disk diffusion method; format: functional
Enterococcus faecalis [20] = test: Antibacterial activity against Enterococcus faecalis ATCC 29212 at 34 ug by disk diffusion method; format: functional, organism-based
Enterococcus faecalis [21] = test: Antibacterial activity against Enterococcus faecalis ATCC 29212 at 67 ug by disk diffusion method; format: functional
MRC5 [22] = test: Ratio of IC50 for viability of MRC5 cells after 48 hrs to MIC for Escherichia coli ATCC 25922; format: functional
Enterococcus faecalis [23] = test: Antibacterial activity against Enterococcus faecalis ATCC 29212; format: functional
Escherichia coli [24] = test: Antibacterial activity against Escherichia coli ATCC 25922 at 270 ug by disk diffusion method; format: functional
Pseudomonas aeruginosa [25] = test: Antibacterial activity against Pseudomonas aeruginosa ATCC 27853 at 34 ug by disk diffusion method; format: functional, organism-based
Escherichia coli [26] = test: Antibacterial activity against Escherichia coli ATCC 25922 at 128 ug by disk diffusion method; format: functional, organism-based
Escherichia coli [27] = test: Antibacterial activity against Escherichia coli ATCC 25922 at 65 ug by disk diffusion method; format: functional, organism-based
Staphylococcus aureus [28] = test: Antibacterial activity against Staphylococcus aureus ATCC 25923 at 32 ug by disk diffusion method; format: functional, organism-based
Escherichia coli [29] = test: Antibacterial activity against Escherichia coli ATCC 25922 at 256 ug by disk diffusion method; format: functional
Enterococcus faecalis [30] = test: Antibacterial activity against Enterococcus faecalis ATCC 29212 at 128 ug by disk diffusion method; format: functional, organism-based
Enterococcus faecalis [31] = test: Antibacterial activity against Enterococcus faecalis ATCC 29212 at 256 ug by disk diffusion method; format: functional, organism-based
Pseudomonas aeruginosa [32] = test: Antibacterial activity against Pseudomonas aeruginosa ATCC 27853 at 65 ug by disk diffusion method; format: functional, organism-based
Pseudomonas aeruginosa [33] = test: Antibacterial activity against Pseudomonas aeruginosa ATCC 27853 at 32 ug by disk diffusion method; format: functional, organism-based
Staphylococcus aureus [34] = test: Antibacterial activity against Staphylococcus aureus ATCC 25923 at 128 ug by disk diffusion method; format: functional, organism-based
Staphylococcus aureus [35] = test: Antibacterial activity against Staphylococcus aureus ATCC 25923 at 256 ug by disk diffusion method; format: functional
Escherichia coli [36] = test: Antibacterial activity against Escherichia coli ATCC 25922 at 32 ug by disk diffusion method; format: functional, organism-based
Enterococcus faecalis [37] = test: Antibacterial activity against Enterococcus faecalis ATCC 29212 at 65 ug by disk diffusion method; format: functional, organism-based
Enterococcus faecalis [38] = test: Antibacterial activity against Enterococcus faecalis ATCC 29212 at 32 ug by disk diffusion method; format: functional, organism-based
Pseudomonas aeruginosa [39] = test: Antibacterial activity against Pseudomonas aeruginosa ATCC 27853 at 128 ug by disk diffusion method; format: functional, organism-based
Staphylococcus aureus [40] = test: Antibacterial activity against Staphylococcus aureus ATCC 25923 at 65 ug by disk diffusion method; format: functional, organism-based
Pseudomonas aeruginosa [41] = test: Antibacterial activity against Pseudomonas aeruginosa ATCC 27853 at 256 ug by disk diffusion method; format: functional, organism-based

What does the source list for `N=C(N)NCCc1cc2c(O)c(c1)Cc1cc(CCNC(=N)N)cc(c1O)Cc1cc(CCNC(=N)N)cc(c1O)Cc1cc(CCNC(=N)N)cc(c1O)C2.O=C(O)C(F)(F)F.O=C(O)C(F)(F)F.O=C(O)C(F)(F)F.O=C(O)C(F)(F)F`?
inhibition zone (IZ) (Enterococcus faecalis [1]): 8.3 mm; inhibition zone (IZ) (Escherichia coli [2]): 7.3 mm; inhibition zone (IZ) (Staphylococcus aureus [3]): 9 mm; inhibition zone (IZ) (Staphylococcus aureus [4]): 6.3 mm; Selectivity index (MRC5 [5]): 43; inhibition zone (IZ) (Pseudomonas aeruginosa [6]): 7.8 mm; inhibition zone (IZ) (Enterococcus faecalis [7]): 10 mm; MIC (Escherichia coli [8]): 16 µg/mL and 13 µM; inhibition zone (IZ) (Staphylococcus aureus [9]): 11 mm; MIC (Staphylococcus aureus [10]): 16 µg/mL and 13 µM; IC50 (MRC5 [11]): 560 µM; inhibition zone (IZ) (Pseudomonas aeruginosa [12]): inactive; inhibition zone (IZ) (Escherichia coli [13]): inactive; Selectivity index (MRC5 [14]): 11; inhibition zone (IZ) (Pseudomonas aeruginosa [15]): inactive; inhibition zone (IZ) (Escherichia coli [16]): 9.3 mm; MIC (Pseudomonas aeruginosa [17]): 16 µg/mL and 13 µM; Selectivity index (MRC5 [18]): 43; inhibition zone (IZ) (Staphylococcus aureus [19]): 8 mm; inhibition zone (IZ) (Enterococcus faecalis [20]): inactive; inhibition zone (IZ) (Enterococcus faecalis [21]): 6.6 mm; Selectivity index (MRC5 [22]): 43; MIC (Enterococcus faecalis [23]): 64 µg/mL and 51 µM; inhibition zone (IZ) (Escherichia coli [24]): 11.2 mm; inhibition zone (IZ) (Pseudomonas aeruginosa [25]): inactive

`N=C(N)NCCc1ccc(O)cc1.O=C(O)C(F)(F)F` was tested. Which “inhibition zone (IZ)” value (Escherichia coli [26]) did it give?
The value was “inactive”.

And the “inhibition zone (IZ)” value (Escherichia coli [27])?
The value was “inactive”.

What about the “inhibition zone (IZ)” value (Staphylococcus aureus [28]) of the same compound?
Its value is “inactive”.

What about the inhibition zone (IZ) (Escherichia coli [29]) of the same compound?
The inhibition zone (IZ) was 7.6 mm.

What about the “inhibition zone (IZ)” value (Enterococcus faecalis [30]) of the same compound?
The value was “inactive”.

What about the “inhibition zone (IZ)” value (Enterococcus faecalis [31]) of the same compound?
The value was “inactive”.

And the “inhibition zone (IZ)” value (Pseudomonas aeruginosa [32])?
The value was “inactive”.

What about the Selectivity index (MRC5 [5]) of the same compound?
Its Selectivity index is 0.48.

And the “inhibition zone (IZ)” value (Pseudomonas aeruginosa [33])?
The value was “inactive”.

What about the MIC (Escherichia coli [8]) of the same compound?
Its MIC is 512 µg/mL and 1750 µM.

And the MIC (Staphylococcus aureus [10])?
The MIC was 512 µg/mL and 1750 µM.

What about the IC50 (MRC5 [11]) of the same compound?
Its IC50 is 850 µM.

What about the “inhibition zone (IZ)” value (Staphylococcus aureus [34]) of the same compound?
Its value is “inactive”.

And the Selectivity index (MRC5 [14])?
Its Selectivity index is “<=0.48”.

And the inhibition zone (IZ) (Staphylococcus aureus [35])?
Its inhibition zone (IZ) is 7.8 mm.

And the MIC (Pseudomonas aeruginosa [17])?
The MIC was 512 µg/mL and 1750 µM.

What about the Selectivity index (MRC5 [18]) of the same compound?
Its Selectivity index is 0.48.

And the “inhibition zone (IZ)” value (Escherichia coli [36])?
The value was “inactive”.

And the “inhibition zone (IZ)” value (Enterococcus faecalis [37])?
The value was “inactive”.

And the “inhibition zone (IZ)” value (Enterococcus faecalis [38])?
Its value is “inactive”.

What about the “inhibition zone (IZ)” value (Pseudomonas aeruginosa [39]) of the same compound?
Its value is “inactive”.

What about the Selectivity index (MRC5 [22]) of the same compound?
Its Selectivity index is 0.48.

What about the MIC (Enterococcus faecalis [23]) of the same compound?
The MIC was ≥ 512 µg/mL and 1750 µM.

What about the “inhibition zone (IZ)” value (Staphylococcus aureus [40]) of the same compound?
The value was “inactive”.

What about the “inhibition zone (IZ)” value (Pseudomonas aeruginosa [41]) of the same compound?
The value was “inactive”.
